Assay results: US12576107B2, “Methods of treating chronic inflammatory diseases” (METIMEDI PHARMACEUTICALS CO., LTD., priority 2018, dated 2026)

Assays:
lactate dehydrogenase B = experiment: Human fibroblast in vitro experiment, Western blot in CCD-18Co cells; assay type: cell-based; details: 2.5 mM; CCD-18Co cells (human colon fibroblast); hypoxia
Experimental: (§1) Human Colon Fibroblast cell line, CCD-18-Co, was purchased from American Type Culture Collection (Manassas, VA, USA). The CCD-18Co cells were maintained in DMEM containing 10% fetal bovine serum (Life Technologies, Gaithersburg, MD, USA), 100 IU/ml penicillin, and 100 μg/ml streptomycin (Welgene, Daegu, South Korea).
To prepare whole cell lysate, cells were lysed with lysis buffer (1% NP-40, 0.25% sodium deoxycholate, 150 mM NaCl, 1 mM EDTA, 1% Triton X-100, 50 mM Tris-HCl (pH 7.4), 10% Glycerol) with protease inhibitor cocktail (Roche, Basel, Switzerland) and phosphatase inhibitors (NA3VO4 1 mM, NaF 100 mM). Then, protein concentration was measured using the Bicinchoninic acid (BCA) assay kit (Thermo Scientific, Waltham, MA). Whole cell or nuclear lysates were transferred onto polyvinylidene fluoride membranes (Merck Millipore, Billerica, MA, USA). After blocking in 5% non-fat milk (Bio-Rad, Hercules, CA, USA) for 1 h, the membranes were incubated overnight at 4° C. with primary antibody diluted in TBST containing 100 mM Tris-HCl (pH 7.5), 1.5 M NaCl, and 0.5% Tween-20 obtained from Sigma-Aldrich, to which 5% BSA and 0.1% sodium azide (Sigma-Aldrich) had been added. Specific primary antibodies to HIF-1α (1:1000), HIF-2α (1:1000), LDH-A (1:1000), LDH-B (1:1000), TLR-4 (1:1000), NF-κB (1:1000), VEGF (1:1000), α-tubulin (1:1000), Actin (1:1000), and GAPDH (1:5000). […]

[1] = test system: hypoxia inducible factor-1α (HIF-1α); experiment: Immunocytochemistry of HIF-1α in ARPE-19 cells; assay type: cell-based, Human; details: 2.5 mM
Experimental: as §1, with “retinal pigment epithelium” for “Colon Fibroblast”, “ARPE-19,” for “CCD-18-Co,”, “ARPE-19” for “CCD-18Co”, “RPMI1640” for “DMEM”
(§2) ARPE-19 and SK-N-SH cells were fixed on bio-coated coverslips (BD bioscience, San Jose, CA, USA) by 4% PFA for 20 min and then incubated with the primary antibodies for 15 h. The primary antibodies were as follows: HIF-1a (1:300, BD Biosciences, San Jose, CA, USA); LDH-A (1:300, Santa Cruz Biotechnology, Santa Cruz, CA, USA); LDH-B (1:300, Santa Cruz Biotechnology, Santa Cruz, CA, USA); NF-κB (1:300, Santa Cruz Biotechnology, Santa Cruz, CA, USA); TLR-4 (1:300, Santa Cruz Biotechnology, Santa Cruz, CA, USA); apoE (1:200, Santa Cruz Biotechnology, Santa Cruz, CA, USA). After PBS wash, the cells were incubated with anti-mouse secondary biotinylated antibody (1:2000, Vector Laboratorie, Burlingame, CA, USA) and visualized with streptavidin conjugated to Fluorescein (Vector Laboratorie, Burlingame, CA, USA). […] Confocal fluorescence images were obtained with confocal laser scanning microscopy (LSCM, Nikon A1+, Tokyo, Japan) under a 60× oil immersion lens.

[2] = test system: LPS-injected spinal cord of rats; experiment: Multiple sclerosis / spinal cord injury model, intraspinal injection of LPS; assay type: in vivo, Sprague-Dawley (SD) rats; details: 2 mg/kg daily subcutaneous 21 days
Experimental: (§3) Animals. […] Eight-week old male Sprague-Dawley (SD) rats were obtained from Samtako Co. (Osan, Gyeonggi-do, Republic of Korea) and bred under specific-pathogen-free (SPF) conditions. All animals were maintained in a 12-hour light/dark cycle at 22-25° C. with free access to food and water.
Dissolve 1 mg of LPS powder in 1 ml of saline. Keep the tubes on ice if LPS is going to be used fresh. For long storage, use screw cap vials are preferred. The aliquots were stored at deep freezer (−20° C.). Calcium lactate was purchased from Sigma Aldrich (St. Louis, USA).
Intraspinal injection of LPS. The animals were placed in a small acrylic cage that was coupled with an anesthesia machine that allowed them to breathe freely under gaseous anesthesia (2% isoflurane, Spartanburg, SC, USA). After full anesthesia of an animal was achieved, it was positioned on an operating table (while maintaining the gaseous anesthesia). For intraspinal injection of LPS, the laminectomy site of rats was exposed. Two small holes, 1 mm apart, were made in the dura over the left dorsal column. A volume of 1 μl of LPS solution was carefully drawn up into a sterile Hamilton syringe, and the LPS solution was slowly injected into the spinal cord. The syringe maintained in place for an additional 2 min to prevent back-flux from the injection site. Then, the injection site was closed by surgical clips.
Immunohistochemistry. […]

[3] = test system: LPS-induced periodontal disease rats; experiment: Periodontal disease model, intragingival injection of LPS; assay type: in vivo, Sprague-Dawley (SD) rats; details: 2 mg/kg daily subcutaneous 21 days
Experimental: as §3
Dissolve 1 mg of LPS powder in 100 μl of saline. Keep the tubes on ice if LPS is going to be used fresh. For long storage, use screw cap vials are preferred. The aliquots were stored in a deep freezer (−20° C.). Calcium lactate was purchased from Sigma Aldrich (St. Louis, MO, USA).
Animal model for periodontal disease. Periodontal disease was induced by intragingival injection of LPS (1 mg/100 μl) in sterile saline. A fine hypodermic needle was inserted at the mesiolateral aspect of the first right mandibular molar and the tip moved distally so that the injection was made at the interdental papilla between the first and second molars. The injection was slowly made, and the needle held in place for 10 seconds post injection to ensure that the LPS was not lost through the needle track.
Histological analysis. […] Mount with mounting medium.

toll like receptor 4 = experiment: Immunocytochemistry of toll like receptor 4 in ARPE-19 cells; assay type: cell-based, Human; details: 2.5 mM, hypoxia
Experimental: as §1, with “retinal pigment epithelium” for “Colon Fibroblast”, “ARPE-19,” for “CCD-18-Co,”, “ARPE-19” for “CCD-18Co”, “RPMI1640” for “DMEM”
as §2

## CC(O)C(=O)[O-].CC(O)C(=O)[O-].[Ca+2] (stereo not shown) [calcium lactate]
Lactate dehydrogenase B
  lactate dehydrogenase B, Western blot: increased
[1]
  hypoxia inducible factor-1α (HIF-1α), immunocytochemistry: decreased
[2]
  demyelinated spinal cord: Recovery
  microglia infiltration (Iba-1) in spinal cord: reduction
[3]
  ligaments and gingiva around the root of tooth (Masson's trichrome): recovered
  morphology of the upper gum (Masson's trichrome): recovered
Toll like receptor 4
  inflammatory factor (toll like receptor 4), immunocytochemistry: decreased
